The values that follow come from patent US8598216B1 (Abbvie Inc., priority 2010, dated 2013).

A short description of data set [1]: Intrinsic dissolution rate (IDR), compressed disc, USP II. Conditions: 200 mL pH 6.8 phosphate buffer, paddle 100 rpm; FIG. 10. It is filed as physicochemical. The method, then: Drug dissolution was measured using in USP II (Dissolution medium: 200 mL pH 6.8 phosphate buffer; Paddle speed: 100 rpm).
A further data set can be described thus: in vivo. The note with it: dog. The method, then:
A series of studies evaluated the effect of the bis-hydrochloride and bis-tosylate form on the ritonavir plasma concentrations following single 100 mg base doses in dogs. Each of the salts was evaluated in a single group of six dogs. The free base and the two salts were weighed into gelatin capsules at a dose of 100 mg base for dosing in the dogs. The dogs were fasted overnight prior to dosing, but were permitted free access to water. Approximately 30 minutes prior to dosing, the dogs received a 100 ug/kg subcutaneous dose of histamine. Plasma concentrations of parent drug were determined by HPLC-MS/MS. The following formulations/salts were evaluated: amorphous ritonavir bis-hydrochloride, amorphous ritonavir free base, and ritonavir bis-tosylate.

The nature of data set [2]: Dynamic moisture sorption (hygroscopicity). It is filed as physicochemical. The note with it: 90% RH, 25° C.; FIG. 7. How it is done: Hygroscopicity was evaluated on a dynamic moisture sorption balance (IGAsorp, Hiden Isochema, Warrington, UK) equipped with a data analyzer (IGAsorp, version 6.0.0.23, Hiden Isochema, Warrington UK). The balance was calibrated using standardized weights of 20, 50, and 100 mg. The RH probe was calibrated using standardized salt solutions of Lithium Chloride, Potassium Carbonate, and Sodium Chloride. During the experiment, the flow rate of nitrogen gas at different relative humidity was 250 mL/min. For anhydrous materials, the sample was first dried with dry nitrogen at 50° C. for two hours. The temperature was then set to 25° C. and the relative humidity was changed from 0% to 90% and back to 0% at 10% interval. For hydrated samples, the temperature was set to 25° C. and the relative humidity was changed at 10% interval from 30% to 90%, back to 10%, and then to 90%.

Broadly, the AUC is concentration integrated over time. Read a high AUC as more exposure. As a reminder, the Cmax is the highest concentration seen after dosing. With `CC(C)c1nc(CN(C)C(=O)N[C@H](C(=O)N[C@@H](Cc2ccccc2)C[C@H](O)[C@H](Cc2ccccc2)NC(=O)OCc2cncs2)C(C)C)cs1.Cl.Cl` [ritonavir bis-hydrochloride], the “intrinsic dissolution rate compared with ritonavir free base” value in data set [1] was “significantly faster dissolution rate than the ritonavir free base”. Besides, the “bioavailability compared with free base” value in the data set “in vivo” was “greater bioavailability than the free base of ritonavir”. In the data set “in vivo” (po, 100 mg, range), this compound came in with an area under the curve (AUC) of 3160 to 20200 ng·h/mL. In the data set “in vivo” (po, 100 mg, peak concentration (Cmax), range), this compound showed a Cmax of 1160 to 8390 ng/mL. Further, the moisture picked up result in data set [2] is “about 20 % (w/w)”.
Compound `CC(C)c1nc(CN(C)C(=O)N[C@H](C(=O)N[C@@H](Cc2ccccc2)C[C@H](O)[C@H](Cc2ccccc2)NC(=O)OCc2cncs2)C(C)C)cs1` [ritonavir free base, (2S,3S,5S)-5-(N-(N-((N-methyl-N-((2-isopropyl-4-thiazolyl)-methyl)amino)carbonyl)-L-valinyl)amino)-2-(N-((5-thiazolyl)-methoxy-carbonyl)-amino)-1,6-diphenyl-3-hydroxyhexane, reference compound] gave an AUC in the data set “in vivo” (po, 100 mg, range) of less than 22 ng·h/mL.
For the compound “ritonavir bis-tosylate [reference compound]”, in “in vivo” (po, 100 mg), the “AUC, range” value lay within 70 to 6420 ng·h/mL and the “peak concentration (Cmax), range” value fell in the range of 10 to 1620 ng/mL.
